Some test systems named below: EKVX NSCLC; UACC-257 melanoma; SF-268 CNS; HCT-116 colon; MCF7 breast; HCC-2998 colon; CCRF-CEM leukemia; M14 melanoma; BT-549 breast; MDA-MB-231 breast.
What all share (assay): DTP human tumour cell line panel, 48 h

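Briefly, cells in 96-well plates were exposed to five compound concentrations for 48 h, and endpoints were estimated by linear interpolation. TGI: concentration producing complete growth inhibition.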

Take `O=NN(CCCl)C(=O)NC1CCC(O)CC1` (centres undefined): the total growth inhibition concentration (TGI) with EKVX NSCLC is over 100 µM; in the assay on UACC-257 melanoma it was over 85.2 µM; in the assay on SF-268 CNS it was 43.3 µM; in the assay on HCT-116 colon it was over 94.4 µM; in the assay with MCF7 breast, over 100 µM; with HCC-2998 colon, over 100 µM. For the same molecule, the total growth inhibition concentration (TGI) in the assay with CCRF-CEM leukemia is 52.2 µM.

As for `O=C(CN(c1ccccc1)c1ccccc1)n1nnc2ccccc21`, the total growth inhibition concentration (TGI) in the assay with EKVX NSCLC is over 100 µM; with UACC-257 melanoma it was over 100 µM; with SF-268 CNS, over 100 µM; with HCT-116 colon, 84.7 µM; with M14 melanoma it was over 100 µM; in the assay with HCC-2998 colon it was over 100 µM. Moreover, the TGI with CCRF-CEM leukemia is over 100 µM.

On to `O=C1c2ccccc2C2(c3ccc(Cl)cc3)N[C@H]3CCCC[C@@H]3N12` (some centres undefined), for which the TGI in the assay on EKVX NSCLC, with UACC-257 melanoma, in the assay on SF-268 CNS, in the assay with HCT-116 colon, in the assay with BT-549 breast and in the assay with MDA-MB-231 breast was over 100 µM in each case. The molecule further had a TGI in the assay on CCRF-CEM leukemia of over 100 µM.

For the molecule `Cc1ccc2c(c1)C(=O)C1(C2)Cc2cccc(C)c2C1=O` (centres undefined), the total growth inhibition concentration (TGI) with EKVX NSCLC, with UACC-257 melanoma, with SF-268 CNS, with HCT-116 colon, with M14 melanoma and with MDA-MB-231 breast was over 100 µM in each case. Further, the concentration for total growth inhibition (TGI) with MCF7 breast, in the assay on HCC-2998 colon and with CCRF-CEM leukemia was over 100 µM throughout.

With `O=C1O[C@H](c2ccc3c(c2)OCO3)[C@H]2CO[C@@H](c3ccc4c(c3)OCO4)[C@@H]12`, the concentration for total growth inhibition (TGI) in the assay with EKVX NSCLC, in the assay on UACC-257 melanoma, in the assay with SF-268 CNS, in the assay with HCT-116 colon, in the assay on BT-549 breast and with M14 melanoma was over 100 µM each time. Moreover, the total growth inhibition concentration (TGI) in the assay on MDA-MB-231 breast, in the assay on MCF7 breast and in the assay on HCC-2998 colon was over 100 µM throughout.

As for `Cc1ccc(S(=O)(=O)C(C#N)c2nc3ccccc3nc2-n2ccnc2)cc1` (centres undefined), the total growth inhibition concentration (TGI) with EKVX NSCLC, in the assay on UACC-257 melanoma, in the assay on SF-268 CNS, in the assay with HCT-116 colon, in the assay on M14 melanoma and in the assay on HCC-2998 colon was over 100 µM throughout. In the assay on CCRF-CEM leukemia, this molecule yielded a TGI of over 100 µM.

Consider `CC(=O)OCC1OC(n2c3c(cc(C#N)c2=S)CCCCC3)C(OC(C)=O)C(OC(C)=O)C1OC(C)=O` (centres undefined), for which the TGI in the assay on UACC-257 melanoma, in the assay with SF-268 CNS, in the assay with HCT-116 colon, in the assay with BT-549 breast, with M14 melanoma and with MDA-MB-231 breast was over 100 µM throughout. Further, the total growth inhibition concentration (TGI) with MCF7 breast, in the assay with HCC-2998 colon and in the assay with CCRF-CEM leukemia was over 100 µM in each case.

As for `COc1c(C(C)C)cc2c3c1OC(=O)[C@@]31CCCC(C)(C)C1CC2` (some centres undefined), the TGI with EKVX NSCLC is 65.3 µM; in the assay with UACC-257 melanoma, 54.1 µM; in the assay on SF-268 CNS, over 100 µM; in the assay on HCT-116 colon, 29.1 µM; in the assay on M14 melanoma it was over 100 µM; in the assay on HCC-2998 colon, over 100 µM. For the same molecule, the TGI with CCRF-CEM leukemia is 59.7 µM.

Regarding `CC(C)CC(O)P(=O)(O)O` (centres undefined), the total growth inhibition concentration (TGI) in the assay on EKVX NSCLC, with UACC-257 melanoma, with HCT-116 colon, in the assay with M14 melanoma, in the assay with MDA-MB-231 breast and in the assay on MCF7 breast was over 100 µM each time. For the same molecule, the concentration for total growth inhibition (TGI) with HCC-2998 colon was over 100 µM.

In the case of `CC(=O)O[C@]12CCCCCC1C1(O)C(O)CCCC[C@H]12` (some centres undefined), the TGI in the assay with EKVX NSCLC, in the assay on UACC-257 melanoma, in the assay on SF-268 CNS, in the assay with M14 melanoma and in the assay on CCRF-CEM leukemia was over 100 µM each time.

Regarding `COC1C=COC2(C)Oc3c(C)c(O)c4c(O)c(c(C5SCCS5)c(O)c4c3C2=O)NC(=O)C(C)=C/C=C\C(C)C2OC(C)(C)OC(C2C)C(C)C(OC(C)=O)C1C` (centres undefined), the total growth inhibition concentration (TGI) with UACC-257 melanoma was 7.89 µM; in the assay with SF-268 CNS it was 29.3 µM; in the assay on HCT-116 colon, over 100 µM; in the assay with BT-549 breast, 9.26 µM; with M14 melanoma, over 100 µM; in the assay on MDA-MB-231 breast, 45.7 µM. Moreover, the concentration for total growth inhibition (TGI) in the assay on MCF7 breast is 7.77 µM; in the assay with HCC-2998 colon, 20.2 µM; with CCRF-CEM leukemia it was over 100 µM.

As to `Cc1cc(NCc2ccccc2)c2ccccc2[n+]1CCCCCCCCCC[n+]1c(C)cc(NCc2ccccc2)c2ccccc21`, the concentration for total growth inhibition (TGI) with EKVX NSCLC came out at 13.4 µM; in the assay on UACC-257 melanoma, 1.31 µM; in the assay with SF-268 CNS it was 2.45 µM; in the assay with HCT-116 colon it was 1.45 µM; in the assay with BT-549 breast it was 1.98 µM; in the assay with M14 melanoma, 3.22 µM. Moreover, the total growth inhibition concentration (TGI) in the assay with MDA-MB-231 breast came out at 1.74 µM; with MCF7 breast it was 1.91 µM; with HCC-2998 colon, 1.79 µM.

For the molecule `CSc1ncnc2c1ncn2CCC#N`, the TGI in the assay on EKVX NSCLC, in the assay with UACC-257 melanoma, with SF-268 CNS, in the assay on HCT-116 colon, in the assay on M14 melanoma and in the assay on MDA-MB-231 breast was over 100 µM in each case. Further, the total growth inhibition concentration (TGI) with MCF7 breast and in the assay with CCRF-CEM leukemia was over 100 µM in each case.

With `[N-]=[N+]=NC1=C(c2ccccn2)C(=O)c2cccc3cccc1c23`, the total growth inhibition concentration (TGI) with UACC-257 melanoma was 98.4 µM; in the assay on SF-268 CNS, 65.9 µM; in the assay on HCT-116 colon it was over 100 µM; with BT-549 breast, 67.2 µM; in the assay on M14 melanoma, over 100 µM; with MDA-MB-231 breast it was over 100 µM. Also, the TGI in the assay with MCF7 breast, with HCC-2998 colon and in the assay with CCRF-CEM leukemia was over 100 µM in each case.

As for `CSc1sc2ccccc2[s+]1`, the TGI in the assay on UACC-257 melanoma, in the assay with SF-268 CNS, in the assay on HCT-116 colon, in the assay with M14 melanoma, in the assay with HCC-2998 colon and in the assay on CCRF-CEM leukemia was over 100 µM throughout.

Regarding `Cn1c2ccccc2c(=O)c2cccc(C(=O)NC(CCCN=C(N)N)C(=O)O)c21` (centres undefined), the total growth inhibition concentration (TGI) in the assay on EKVX NSCLC, in the assay with UACC-257 melanoma, with SF-268 CNS, with HCT-116 colon, with BT-549 breast and in the assay on M14 melanoma was over 100 µM each time. Also, the TGI in the assay with MDA-MB-231 breast, with MCF7 breast and in the assay with HCC-2998 colon was over 100 µM in each case.

The TGI is the concentration at which net growth stops.

Values taken from PubChem BioAssay (NCI).
